The subject of one data set is U87MG. The data set is described as follows: Cell viability, glioblastoma U87MG. The note with it: Homo sapiens, U-87 MG; glioblastoma cell line. Type of data set: cell-based. The procedure: (§1) The anti-cancer efficacy of exemplary compounds of the application were assessed in vitro against different cancer cell lines. […] 1×10^4 cells/well were plated in 96-well assay plates in culture medium. […] In some instances, FBS was removed for periods ranging from 16-24 hours, and re-introduced with test compound addition. After 24 hrs, test compounds and vehicle controls were added to appropriate wells such that the final volume was 100 μl in each well. The cells were cultured for the desired test exposure period (72 hours) at 37° C. and 5% CO2. The assay plates were removed from […] incubator and 20 μl/well of CellTiter-Blue® Reagent was added. The plates were incubated using standard cell culture conditions for 1-4 hours. Afterwards, the plates were shaken for 10 seconds and florescence was recorded at 560/590 nm using a Cytation 3 spectrophotometer. IC50 values were determined using non-linear regression analysis with GraphPad Prism 6.0 (GraphPad Software Inc.).

A further data set has as its system MOLM13. The experiment in a line: CellTiter-Blue cell viability, MOLM13. The class given is cell-based. The conditions noted are these: Homo sapiens, MOLM-13. In short, it runs like this: (§2)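 Cells were seeded at 1×10^4/well, grown 24 h in FBS-supplemented medium, then exposed to compound (0.097656–50 μM) for 72 h at 37° C, 5% CO2. Viability was read by CellTiter-Blue fluorescence (560/590 nm) after 1–4 h reagent incubation, with IC50 derived by non-linear regression.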

The target in data set [1] is T1, UBA5 (Homo sapiens, UniProt Q9GZZ9).
T1 construct: Constructs of full length human UBA5 (1-404) were cloned into a pET28b(+) vector; His-SUMO (N, cleaved yes); made in house; host or cells: E. coli BL21 (DE3) RILP
T1 sequence (Q9GZZ9 whole entry): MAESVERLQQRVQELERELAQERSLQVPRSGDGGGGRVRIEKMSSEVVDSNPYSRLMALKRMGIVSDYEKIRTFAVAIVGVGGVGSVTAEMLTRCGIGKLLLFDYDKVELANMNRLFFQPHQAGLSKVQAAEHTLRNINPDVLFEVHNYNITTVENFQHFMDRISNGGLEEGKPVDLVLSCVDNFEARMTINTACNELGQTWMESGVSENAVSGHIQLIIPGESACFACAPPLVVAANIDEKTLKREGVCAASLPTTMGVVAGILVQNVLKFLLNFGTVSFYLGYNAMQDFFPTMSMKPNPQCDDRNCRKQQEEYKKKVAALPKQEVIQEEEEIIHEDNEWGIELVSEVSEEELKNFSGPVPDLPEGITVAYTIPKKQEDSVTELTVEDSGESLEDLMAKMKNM
The data set is described as follows: In vitro transthiolation assay (UFM1-UFC1 conjugate formation). Type of data set: biochemical. The conditions noted are these: 50 nM UBA5, 3.5 hours pre-incubation, 0 to 1 μM I-1. The procedure:
UBA5 and test compounds were pre-incubated for a period of 8 hours at 37° C. prior to addition of other assay components. After this period, UFM1, UFC1 and ATP were introduced to initiate the reactions. Final concentrations in the reactions were 250 nM UBA5, 10 μM UFM1, 10 μM UFC1 and 100 μM ATP for total assay volumes of 20 μL, in buffer consisting of 50 mM 4-(2-hydroxyethyl)-1-piperazineethanesulfonic acid (HEPES),), 0.5 mM TCEP, 5 mM MgCl2, at pH 7.4. A final concentration of 10% (v/v) DMSO was present in all reactions. The reactions were allowed to proceed for 1 hour before stopping with 4× Laemmli buffer (Bio-Rad 1610747). Samples were then run on 4-20% non-reducing SDS-PAGE stain-free gels to separate protein conjugates. Gels were subsequently imaged using Stain-free imaging technology (Bio-Rad). Image Lab software was used to quantify the intensity of the UFM1-UFC1 conjugate bands to controls with no inhibitor present and reported as % inhibition values.
I-1 was evaluated as well using differing transthiolation assay conditions, with a reduction in UBA5 concentration to 50 nM and a pre-incubation period of 3.5 hours at 37° C. of UBA5 with I-1. This was followed by a 30 minute reaction time after UFM1, UFC1 and ATP addition. A final concentration of 5% (v/v) DMSO was used.

In the next data set the test system is U118MG. The experiment in a line: Cell viability, glioblastoma U118MG. Type of data set: cell-based. The note with it: Homo sapiens, U-118-MG; glioblastoma cell line. Here is the method: as §1
The subject of the next data set is tubulin. The experiment in a line: Tubulin polymerization assay. Type of data set: biochemical. The conditions noted are these: 10 μM compound, optical density 340 nm.
A further data set concerns LN-18. The data set is described as follows: Cell viability, glioblastoma LN-18. Type of data set: cell-based. The note with it: Homo sapiens, glioblastoma cell line. The procedure: as §1
Data set [2] has as its system UFMylation pathway (UBA5, UFC1, UFM1, c-Myc) in MV4-11 cells. The experiment in a line: Western blot of UFMylation pathway in MV4-11 cells. Type of data set: cell-based. The conditions noted are these: 8 hours. The procedure: Post-treatment (8 hours) of MV4-11 cells with I-1 test compound at 1, 0.5, 0.25, 0.1 and 0 μM concentrations, all cells were lysed with radioimmunoprecipitation assay (RIPA) buffer: 20 mM Tris pH 7.4, 150 mM NaCl, 0.5% deoxycholate, 1% Triton X-100, 0.1% sodium dodecyl sulfate (SDS). Total protein was measured using BCA assay (Sigma). In each assay, clarified protein were resolved on a 4%-15% polyacrylamideSDS gel and transferred to a PVDF membrane (Bio-Rad). The membranes were blocked with 5% solution of skim milk powder in TBST and incubated for at least 1 hour followed by an overnight incubation at 4° C. in primary antibody (1:1000 dilution). Blots were probed with antibodies against UBA5, UFM1, UFC1, c-Myc, and beta-actin was used as a loading control (Santa Cruz Biotechnology catalog # sc-835). The PVDF membrane then washed with TBST (3 times for 5 minutes). A horseradish peroxides (HRP)-conjugated goat anti-mouse IgG secondary antibodies (Cell signaling Catalog #7076S) was applied to the membrane (1:5000 dilution) and incubated for 1 hour at room temperature. The blots were then rinsed again 3 times in TBST for 10 minutes. Bands were visualized using clarity western ECL substrate luminal/enhancer solution and peroxide solution 1:1 ratio for HRP secondary antibody, according to the manufacturer's instructions (Bio-Rad) and analyzed using Image lab software (Bio-Rad).

Data set [3] addresses T1, UBA5. The experiment in a line: MS study of UBA5 covalent adduct. The class given is binding. The conditions noted are these: 100 μM I-1, 50 μM UBA5. The procedure:
To further characterize covalent modification of UBA5 by I-1, samples were incubated as 100 μM I-1 and 50 μM UBA5 (50 mM HEPES, pH 7.4) at 30° C. for 2 hours, followed by storage overnight at 4° C. prior to submission for LC-MS analysis.

The nature of data set [4]: Intrinsic clearance in mouse hepatocytes.
Experimental: A stock of 100 μM test compound was prepared by diluting the 10 mM I-1 test compound in DMSO with a solution of 50% acetonitrile and 50% water. In a 96-well non-coated plate, 198 μL of hepatocytes was pipetted, and the plate was placed in the incubator on an orbital shaker to allow the hepatocytes to warm for 10 minutes. To this solution 2 μL of the 100 μM I-1 was added to start the reaction, and the plate was placed on an orbital shaker. […] The reaction solution was then vortexed for 10 minutes and centrifuged at 4,000 rpm for 30 minutes at 4° C. Next, 400 μL of the supernatant was transferred to one new 96-well plate, centrifuged at 4,000 rpm for 30 minutes at 4° C., and 100 μL of the supernatant was transferred to a new 96-well plate ensuring the pellet was not disturbed. 100 μL of ultrapure water was added to all samples for analysis by LC-MS/MS.
Injection volume was 10 μL.
A further data set relates to MV4-11. The data set is described as follows: CellTiter-Blue cell viability, MV4-11. The class given is cell-based. The note with it: Homo sapiens, MV4-11. In short, it runs like this:
as §2

The structures appear in SMILES notation. “Also recorded” adds a separate entry of the source. Where only a bound is given, the exact number is not on record here.

The term IC50 denotes the concentration needed to halve the response being measured. Read a high IC50 as a need for much substance. In general, half-life refers to the time in which the quantity being followed falls by half. Turning to `O=S(=O)(c1c(F)c(F)c(F)c(F)c1F)N(Cc1ccc(F)cc1)C1CC1` [Compound I-1, N-cyclopropyl-2,3,4,5,6-pentafluoro-N-(4-fluorobenzyl)benzenesulfonamide], the half-maximal inhibitory concentration (IC50) with U87MG stood at 2870 nM; in the data set with MOLM13 (AML cell line, 72 hours), 1500 nM; with MOLM13 (AML, Table 4), 2500 nM; with U118MG, 10300 nM; in the data set with LN-18, 4920 nM; with MV4-11 (AML cell line, 72 hours), 470 nM. Further, 600 nM corresponded to half-maximal inhibition with MV4-11 (AML, Table 4) (IC50). The UFM1-UFC1 conjugate formation entry on UBA5 [1] is on record as “no conjugate formation at sub-micromolar concentrations”. Also, the “inhibition of tubulin polymerization” value in the data set on tubulin is reported as “Negligible inhibition; also recorded: no significant inhibitory action”. Besides, the “concentration at which UFM1-UFC1 conjugate levels decrease” value in data set [2] was not below 250 nM. Besides, the “concentration at which c-Myc levels decrease” value in [2] was not below 250 nM. Moreover, the “concentration giving complete wipe-out of UBA5 total protein” value in [2] was “greater than 500 nM”. Moreover, the “concentration giving reduction of UBA5 total protein levels” value in [2] is on record as 250 nM. Further, the “UBA5 covalent adduct formation by MS” value on UBA5 [3] is recorded as “covalent adduct formation”. For the same molecule, the half-life at 1 μM in [4] is 3.07 h.

Values taken from patent US20200277268A1, “PENTAFLUOROPHENYL SULFONAMIDE COMPOUNDS, COMPOSITIONS AND USES THEREOF” (DALRIADA THERAPEUTICS INC., priority 2017, published 2020).
